Laboratory results from patent US20240115470A1, “METHYL-FLUORO-HYDROXYBENZOATES IN CONSUMER PRODUCTS” (GIVAUDAN SA, priority 2020, published 2024).

Key:
[1] = Assessment of the odor profile on smelling strips by panellists, compared to methyl salicylate; conditions: for Odor description: compound @10 wt % in polyethylene glycol, freshly dipped on smelling strips, compared to methyl salicylate; for odor profile compared to methyl salicylate (summary statement) / sweet aspect of odor profile: general statement in description
Experimental: A 10 wt % solution of the purified samples of Example 1 were prepared (compound @10 wt % in polyethylene glycol). The odor profile was assessed freshly dipped on smelling strips.
Panellists have been asked to provide an odor description as compared to methyl salicylate.

[2] = GC-odor threshold concentration (gas chromatograph with sniff port, panel of trained evaluators); conditions: for odor threshold concentration compared to methyl salicylate and other methyl-fluoro-hydroxybenzoates (in words): general statement in description; for odor threshold concentration (relative): relative values, identical conditions, GC sniff port
Experimental: Definition: The odour threshold concentration is defined as the lowest concentration of the vapour of an odorant material in the air which can be detected by smell and can be measured by standard methods known in the art.
According to standard procedures known to the person skilled in the art, threshold concentrations for volatile perfumery compounds are determined on a gas chromatograph equipped with a sniff port by a panel of trained evaluators. The lowest concentration smelled by each panelist is recorded as the individual threshold concentration expressed in ng (absolute amount of compound delivered at the sniff port).
Under identical conditions the odor threshold concentration for […]

[3] = Replacement of methyl salicylate in wintergreen flavor formulation for toothpaste; conditions: 20 parts methyl salicylate replaced by 0.2 parts compound and 19.8 parts PG
Description: The formulation above is a typical wintergreen type flavor suitable for the use in toothpaste products, at a dosage of, e.g. 1.2 wt %.

[4] = Light floral cologne accord, replacement of 4 parts DPG; conditions: 4 parts DPG of 1000 replaced by the compound
Description: The accord above represents a light floral cologne accord, suitable for fine perfumery at a dosage of e.g. 5 weight %.
Without methyl salicylate, the accord lacks initial freshness and neutrality on the top note.
Thus an accord was obtained which compensates the effects normally achieved by the presence of methyl salicylate, thus a useful compensation of methyl salicylate is obtained.

[5] = Replacement of methyl salicylate in wintergreen flavor formulation for mouthwash; conditions: 20 parts methyl salicylate replaced by 0.2 parts compound and 19.8 parts PG
Description: The formulation above is a typical wintergreen type flavor suitable for the use in mouthwash products, at a dosage of, e.g. 0.3 wt %.

Structure (SMILES)	Odor description [1]	odor profile compared to methyl salicylate (summary statement) [1]	sweet aspect of odor profile [1]	odor threshold concentration compared to methyl salicylate and other methyl-fluoro-hydroxybenzoates (in words) [2]	odor threshold concentration (relative) [2]	flavor profile after replacement of methyl salicylate [3]	olfactory effect on accord [4]	odor threshold concentration, times lower than methyl 3-fluoro-2-hydroxybenzoate ([2]; versus methyl 3-fluoro-2-hydroxybenzoate)	odor threshold concentration, times lower than methyl salicylate ([2]; versus methyl salicylate)	flavor profile after replacement of methyl salicylate [5]
COC(=O)c1c(O)cccc1F [methyl 2-fluoro-6-hydroxybenzoate]	Sweetness, elements of wintergreen,	very similar to methyl salicylate	possessing these sweet aspect	surprisingly low	1	–	–	–	–	–
COC(=O)c1ccc(F)cc1O [methyl 4-fluoro-2-hydroxybenzoate]	Wintergreen, typical methyl salicylate	very similar to methyl salicylate	possessing these sweet aspect	surprisingly low	4	profile with very similar characteristics	fresh and green natural effect on the top note	more than 10 times	more than 5 times	profile with very similar characteristics
COC(=O)c1cc(F)ccc1O [methyl 5-fluoro-2-hydroxybenzoate, reference compound]	less sweetness, methyl salicylate character	–	–	–	36	–	–	–	–	–
COC(=O)c1ccccc1O [methyl 2-hydroxybenzoate, reference compound]	–	–	–	–	22	–	helps to reinforce the fresh, transparent, natural top note	–	–	–
COC(=O)c1cccc(F)c1O [methyl 3-fluoro-2-hydroxybenzoate, reference compound]	Medicinal note, technical	–	–	–	42	–	–	–	–	–
